{"source": "ChEMBL document CHEMBL6096719", "about": "“Kidney Targeting Smart Antibiotic Discovery: Multimechanism Pleuromutilins for Pyelonephritis Therapy” (J Med Chem, 2025)", "key": {"[1]": {"experiment": "Aqueous solubility of the compound incubated for 12 hrs by UV-Vis spectrophotometry", "assay_type": "physicochemical", "conditions": "buffer"}, "[2]": {"experiment": "Cytotoxicity against human HEK293 cells assessed as reduction in cell viability incubated for 24 hrs by CCK8 assay", "assay_type": "toxicity, cell-based"}, "Acinetobacter baumannii [3]": {"system": "Acinetobacter baumannii", "experiment": "Antibacterial activity against carbapenem-resistant Acinetobacter baumannii 882 assessed as inhibition of bacterial growth incubated for 24 hrs by broth microdilution method", "assay_type": "functional"}, "Pseudomonas aeruginosa": {"system": "Pseudomonas aeruginosa", "experiment": "Antibacterial activity against multidrug-resistant Pseudomonas aeruginosa 126 assessed as inhibition of bacterial growth incubated for 24 hrs by broth microdilution method", "assay_type": "functional"}, "Staphylococcus aureus [4]": {"system": "Staphylococcus aureus", "experiment": "Antibacterial activity against methicillin-resistant Staphylococcus aureus 206 assessed as inhibition of bacterial growth incubated for 24 hrs by broth microdilution method", "assay_type": "functional"}, "Staphylococcus aureus [5]": {"system": "Staphylococcus aureus", "experiment": "Antibacterial activity against methicillin-resistant Staphylococcus aureus 596 assessed as inhibition of bacterial growth incubated for 24 hrs by broth microdilution method", "assay_type": "functional"}, "Staphylococcus aureus [6]": {"system": "Staphylococcus aureus", "experiment": "Antibacterial activity against methicillin-resistant Staphylococcus aureus 575 assessed as inhibition of bacterial growth incubated for 24 hrs by broth microdilution method", "assay_type": "functional"}, "Staphylococcus aureus [7]": {"system": "Staphylococcus aureus", "experiment": "Antibacterial activity against methicillin-resistant Staphylococcus aureus 222 assessed as inhibition of bacterial growth incubated for 24 hrs by broth microdilution method", "assay_type": "functional"}, "Staphylococcus aureus [8]": {"system": "Staphylococcus aureus", "experiment": "Antibacterial activity against Staphylococcus aureus ATCC 29213 assessed as inhibition of bacterial growth incubated for 24 hrs by broth microdilution method", "assay_type": "functional"}, "Staphylococcus aureus [9]": {"system": "Staphylococcus aureus", "experiment": "Antibacterial activity against methicillin-resistant Staphylococcus aureus ATCC 33591 assessed as inhibition of bacterial growth incubated for 24 hrs by broth microdilution method", "assay_type": "functional"}, "Staphylococcus aureus [10]": {"system": "Staphylococcus aureus", "experiment": "Antibacterial activity against methicillin-resistant Staphylococcus aureus 171 assessed as inhibition of bacterial growth incubated for 24 hrs by broth microdilution method", "assay_type": "functional"}, "Salmonella enterica": {"system": "Salmonella enterica", "experiment": "Antibacterial activity against Salmonella enterica ATCC 14028 assessed as inhibition of bacterial growth incubated for 24 hrs by broth microdilution method", "assay_type": "functional"}, "[11]": {"experiment": "Cytotoxicity against human HepG2 cells assessed as reduction in cell viability incubated for 24 hrs by CCK8 assay", "assay_type": "toxicity, cell-based"}, "Escherichia coli [12]": {"system": "Escherichia coli", "experiment": "Antibacterial activity against Escherichia coli ATCC 25922 assessed as inhibition of bacterial growth incubated for 24 hrs by broth microdilution method", "assay_type": "functional"}, "[13]": {"system": "Staphylococcus epidermidis", "experiment": "Antibacterial activity against methicillin-resistant Staphylococcus epidermidis ATCC 51625 assessed as inhibition of bacterial growth incubated for 24 hrs by broth microdilution method", "assay_type": "functional"}, "Acinetobacter baumannii [14]": {"system": "Acinetobacter baumannii", "experiment": "Antibacterial activity against Acinetobacter baumannii ATCC 19606 assessed as inhibition of bacterial growth incubated for 24 hrs by broth microdilution method", "assay_type": "functional"}, "Enterococcus": {"system": "Enterococcus", "experiment": "Antibacterial activity against vancomycin-resistant Enterococcus 80 assessed as inhibition of bacterial growth incubated for 24 hrs by broth microdilution method", "assay_type": "functional"}, "Klebsiella pneumoniae": {"system": "Klebsiella pneumoniae", "experiment": "Antibacterial activity against multidrug-resistant Klebsiella pneumoniae 893 assessed as inhibition of bacterial growth incubated for 24 hrs by broth microdilution method", "assay_type": "functional"}, "Escherichia coli [15]": {"system": "Escherichia coli", "experiment": "Antibacterial activity against Escherichia coli CMCC 44103 assessed as inhibition of bacterial growth incubated for 24 hrs by broth microdilution method", "assay_type": "functional"}, "[16]": {"experiment": "Cytotoxicity against human A549 cells assessed as reduction in cell viability incubated for 24 hrs by CCK8 assay", "assay_type": "toxicity, cell-based"}, "Staphylococcus aureus [17]": {"system": "Staphylococcus aureus", "experiment": "Antibacterial activity against methicillin-resistant Staphylococcus aureus ATCC 43300 assessed as inhibition of bacterial growth incubated for 24 hrs by broth microdilution method", "assay_type": "functional"}}}
{"smiles": "C=C[C@]1(C)C[C@@H](OC(=O)CSc2nc3cc[n+](Cc4ccc(C(F)(F)F)cc4)cc3s2)[C@]2(C)[C@H](C)CC[C@]3(CCC(=O)[C@H]32)[C@@H](C)[C@@H]1O.[Br-]", "values": [{"measurement": "solubility at 12 h", "setting": "[1]", "value": 246, "unit": "µg/mL"}]}
{"smiles": "C=C[C@]1(C)C[C@@H](OC(=O)CSc2nc3cc[n+](Cc4ccc(C#N)cc4)cc3[nH]2)[C@]2(C)[C@H](C)CC[C@]3(CCC(=O)[C@H]32)[C@@H](C)[C@@H]1O.[Br-]", "values": [{"measurement": "CC50 at 24 h", "setting": "[2]", "value": "> 100", "unit": "µM"}, {"measurement": "MIC", "setting": "Acinetobacter baumannii [3]", "value": 64, "unit": "µg/mL"}, {"measurement": "MIC", "setting": "Pseudomonas aeruginosa", "value": 32, "unit": "µg/mL"}, {"measurement": "MIC", "setting": "Staphylococcus aureus [4]", "value": 4, "unit": "µg/mL"}, {"measurement": "solubility at 12 h", "setting": "[1]", "value": 481, "unit": "µg/mL"}, {"measurement": "MIC", "setting": "Staphylococcus aureus [5]", "value": 8, "unit": "µg/mL"}, {"measurement": "MIC", "setting": "Staphylococcus aureus [6]", "value": 32, "unit": "µg/mL"}, {"measurement": "MIC", "setting": "Staphylococcus aureus [7]", "value": 16, "unit": "µg/mL"}, {"measurement": "MIC", "setting": "Staphylococcus aureus [8]", "value": "< 2", "unit": "µg/mL"}, {"measurement": "MIC", "setting": "Staphylococcus aureus [9]", "value": "< 2", "unit": "µg/mL"}, {"measurement": "MIC", "setting": "Staphylococcus aureus [10]", "value": 16, "unit": "µg/mL"}, {"measurement": "MIC", "setting": "Salmonella enterica", "value": "< 2", "unit": "µg/mL"}, {"measurement": "CC50 at 24 h", "setting": "[11]", "value": 96.3, "unit": "µM"}, {"measurement": "MIC", "setting": "Escherichia coli [12]", "value": "< 2", "unit": "µg/mL"}, {"measurement": "MIC", "setting": "[13]", "value": "< 2", "unit": "µg/mL"}, {"measurement": "MIC", "setting": "Acinetobacter baumannii [14]", "value": "< 2", "unit": "µg/mL"}, {"measurement": "MIC", "setting": "Enterococcus", "value": 2, "unit": "µg/mL"}, {"measurement": "MIC", "setting": "Klebsiella pneumoniae", "value": 16, "unit": "µg/mL"}, {"measurement": "MIC", "setting": "Escherichia coli [15]", "value": "< 2", "unit": "µg/mL"}, {"measurement": "CC50 at 24 h", "setting": "[16]", "value": "> 100", "unit": "µM"}, {"measurement": "MIC", "setting": "Staphylococcus aureus [17]", "value": "< 2", "unit": "µg/mL"}]}
{"smiles": "Br.C=C[C@]1(C)C[C@@H](OC(=O)CSc2nc3cc[n+](Cc4ccc([N+](=O)[O-])cc4)cc3[nH]2)[C@]2(C)[C@H](C)CC[C@]3(CCC(=O)[C@H]32)[C@@H](C)[C@@H]1O", "values": [{"measurement": "solubility at 12 h", "setting": "[1]", "value": 691, "unit": "µg/mL"}]}
{"smiles": "C=C[C@]1(C)C[C@@H](OC(=O)CSc2nc3cc[n+](Cc4ccc(F)cc4)cc3s2)[C@]2(C)[C@H](C)CC[C@]3(CCC(=O)[C@H]32)[C@@H](C)[C@@H]1O.[Br-]", "values": [{"measurement": "solubility at 12 h", "setting": "[1]", "value": 395, "unit": "µg/mL"}]}
{"smiles": "C=C[C@]1(C)C[C@@H](OC(=O)CSc2nc3cc[n+](Cc4cc(F)c(F)cc4F)cc3s2)[C@]2(C)[C@H](C)CC[C@]3(CCC(=O)[C@H]32)[C@@H](C)[C@@H]1O.[Br-]", "values": [{"measurement": "solubility at 12 h", "setting": "[1]", "value": 485, "unit": "µg/mL"}]}
{"smiles": "C=C[C@]1(C)C[C@@H](OC(=O)CSc2nc3cc[n+](Cc4cc(F)c(F)cc4F)cc3[nH]2)[C@]2(C)[C@H](C)CC[C@]3(CCC(=O)[C@H]32)[C@@H](C)[C@@H]1O.[Br-]", "values": [{"measurement": "solubility at 12 h", "setting": "[1]", "value": 539, "unit": "µg/mL"}]}
{"smiles": "C=C[C@]1(C)C[C@@H](OC(=O)CSc2nc3cc[n+](Cc4cc(F)ccc4C#N)cc3s2)[C@]2(C)[C@H](C)CC[C@]3(CCC(=O)[C@H]32)[C@@H](C)[C@@H]1O.[Br-]", "values": [{"measurement": "solubility at 12 h", "setting": "[1]", "value": 168, "unit": "µg/mL"}]}
{"smiles": "C=C[C@]1(C)C[C@@H](OC(=O)CSc2nc3cc[n+](Cc4ccc(C(F)(F)F)cc4)cc3[nH]2)[C@]2(C)[C@H](C)CC[C@]3(CCC(=O)[C@H]32)[C@@H](C)[C@@H]1O.[Br-]", "values": [{"measurement": "solubility at 12 h", "setting": "[1]", "value": 337, "unit": "µg/mL"}]}
{"smiles": "C=C[C@]1(C)C[C@@H](OC(=O)CSc2nc3cc[n+](Cc4cc(F)ccc4C#N)cc3[nH]2)[C@]2(C)[C@H](C)CC[C@]3(CCC(=O)[C@H]32)[C@@H](C)[C@@H]1O.[Br-]", "values": [{"measurement": "solubility at 12 h", "setting": "[1]", "value": 91.8, "unit": "µg/mL"}]}
{"smiles": "C=C[C@]1(C)C[C@@H](OC(=O)CSc2nc3cc[n+](Cc4ccc(Cl)cc4)cc3s2)[C@]2(C)[C@H](C)CC[C@]3(CCC(=O)[C@H]32)[C@@H](C)[C@@H]1O.[Br-]", "values": [{"measurement": "solubility at 12 h", "setting": "[1]", "value": 449, "unit": "µg/mL"}]}
{"smiles": "C=C[C@]1(C)C[C@@H](OC(=O)CS[C@@H]2C[C@H]3CC[C@@H](C2)N3C)[C@]2(C)[C@H](C)CC[C@]3(CCC(=O)[C@H]32)[C@@H](C)[C@@H]1O", "note": "[RETAPAMULIN]", "values": [{"measurement": "CC50 at 24 h", "setting": "[2]", "value": 57.5, "unit": "µM"}, {"measurement": "MIC", "setting": "Acinetobacter baumannii [3]", "value": 64, "unit": "µg/mL"}, {"measurement": "MIC", "setting": "Pseudomonas aeruginosa", "value": 64, "unit": "µg/mL"}, {"measurement": "MIC", "setting": "Staphylococcus aureus [4]", "value": 64, "unit": "µg/mL"}, {"measurement": "MIC", "setting": "Staphylococcus aureus [5]", "value": 32, "unit": "µg/mL"}, {"measurement": "MIC", "setting": "Staphylococcus aureus [6]", "value": 32, "unit": "µg/mL"}, {"measurement": "MIC", "setting": "Staphylococcus aureus [7]", "value": 128, "unit": "µg/mL"}, {"measurement": "MIC", "setting": "Staphylococcus aureus [10]", "value": 128, "unit": "µg/mL"}, {"measurement": "CC50 at 24 h", "setting": "[11]", "value": 61.1, "unit": "µM"}, {"measurement": "MIC", "setting": "Enterococcus", "value": "> 128", "unit": "µg/mL"}, {"measurement": "MIC", "setting": "Klebsiella pneumoniae", "value": 128, "unit": "µg/mL"}, {"measurement": "CC50 at 24 h", "setting": "[16]", "value": 71.5, "unit": "µM"}]}
{"smiles": "C=C[C@]1(C)C[C@@H](OC(=O)CSc2nc3cc[n+](Cc4ccc(-c5ccccc5)cc4)cc3[nH]2)[C@]2(C)[C@H](C)CC[C@]3(CCC(=O)[C@H]32)[C@@H](C)[C@@H]1O.[Br-]", "values": [{"measurement": "solubility at 12 h", "setting": "[1]", "value": 367, "unit": "µg/mL"}]}
{"smiles": "C=C[C@]1(C)C[C@@H](OC(=O)CSc2nc3cc[n+](Cc4ccc(C(C)(C)C)cc4)cc3[nH]2)[C@]2(C)[C@H](C)CC[C@]3(CCC(=O)[C@H]32)[C@@H](C)[C@@H]1O.[Br-]", "values": [{"measurement": "solubility at 12 h", "setting": "[1]", "value": 486, "unit": "µg/mL"}]}
{"smiles": "C=C[C@]1(C)C[C@@H](OC(=O)CSc2nc3cc[n+](Cc4ccc(OC)cc4)cc3s2)[C@]2(C)[C@H](C)CC[C@]3(CCC(=O)[C@H]32)[C@@H](C)[C@@H]1O.[Br-]", "values": [{"measurement": "solubility at 12 h", "setting": "[1]", "value": 177, "unit": "µg/mL"}]}
